The source of these data is US10456405B2, “Nitric oxide-releasing prodrug molecule of substituted quinazolines” (ZHEJIANG HUAHAI PHARMACEUTICAL CO., LTD, priority 2015, dated 2019).

Molecules are shown by their SMILES. Like-named read-outs stand apart in the source and are kept apart here.

For data set [1] the following is noted: rat, in vivo.
Experimental: Experimental method: Intravenous injection solutions (the administration concentrations of the tested compounds were 1 mg/kg) and oral gastric perfusates (the administration concentrations of the test compounds were 5 mg/kg) of the test compounds were prepared, and intravenously and orally administered to three SD rats, respectively. The concentrations of the whole blood for H130 at 0.083 h, 0.25 h, 0.5 h, 1 h, 2 h, 4 h, 8 h, and 24 h after administration were determined by LC-MS/MS, respectively. The pharmacokinetic parameters were compared by a drug-time curve. Sample pretreatment: 150 μL of the whole blood to be tested was aspirated accurately. 600 μL of internal standard solution (diluted to 0.5 μg/mL with methanol) was added, sufficiently mixed by a vortex mixer, and centrifuged at 13000 r/min for 20 min at 4° C. 3 μL of the supernatant was taken into a sample vial.
Chromatographic conditions: C18 reversed-phase chromatographic column; gradient elution with mobile phase A: water/acetonitrile (v:v=95:5) with 0.025% of formic acid and 1 mM of ammonium acetate added thereto, and mobile phase B: acetonitrile/water (v:v=95:5) with 0.025% of formic acid and 1 mM of ammonium acetate added thereto.
The nature of data set [2]: Release of HNO (headspace gas chromatography of nitrous oxide). As to conditions: PBS pH 7.4, 37° C., argon, 90 min. On the procedure:
Experiment 2. Experimental study on the tested compounds for releasing HNO HNO rapidly dimerizes and dehydrates to produce nitrous oxide in aqueous solution. In the experiment of detecting HNO, gas chromatographic headspace analysis is generally used to determine the amount of the released nitrous oxide, thereby indirectly detect the level of releasing HNO of the compound.
Experimental procedure: Each of the tested compounds was prepared to 20 mg/mL of mother liquor with DMF. Prior to the start of the experiment, 50 μL of drug mother liquor was placed into a 20 mL headspace sample vial. The tested compound was diluted by adding 5 mL of PBS buffer with pH 7.4. The temperature of the resulting sample was kept at 37° C. under argon gas for 90 min. Then the top gas was extracted for gas chromatographic analysis of nitrous oxide by using Angeli's Salt as a positive compound in the experiment.

The subject of the next data set is ApoA-I mRNA. The data set is described as follows: Regulation of ApoA-I mRNA in HepG2 cells (real-time PCR). As to conditions: 100 μM, 48 h, relative to DMSO control. It counts as cell-based. Also on record: key: Active: When 100 μM of the tested compound allowed ApoA-I mRNA in HepG2 cells to increase more than 15%, then the test compound was known as an ApoA active compound. On the procedure: Experiment 5. Regulation of the Tested Compounds on ApoA-I mRNA HepG2 cells were cultured for 24 h in a 24-well plate with 400 μl of MEM medium containing 0.5% (v/v) of fetal bovine serum. Then each of the tested compounds (100 μM) and the positive control RVX-208 (100 μM) were added. The cells were cultured for another 48 h. The medium was aspirated out. After washing with 200 μl of PBS, 85 μl of cell lysis solution was added into the cells in each well. The cells were incubated at room temperature for 5 to 10 min to be completely dissolved and detached. The mRNA was extracted from the cells with a kit. The extracted mRNA were used for a real-time fluorescence quantitative PCR detection with RNA Fluorescence (RiboGreen) Quantitation Assay Kit and ApoA-I mRNA Primer-Probe Mixture from the company of Applied Biosystems.
After obtaining the Ct values, the induction fold of each test compound relative to DMSO control was calculated. The induction fold was used to reflect the ability of regulating ApoA-I mRNA for the tested compounds. When 100 μM of the tested compound allowed ApoA-I mRNA in HepG2 cells to increase more than 15%, then the test compound was known as an ApoA active compound.
Background: In qPCR the cycle at which signal appears reflects the starting amount.

In a further data set the test system is apoE−/− mice. The data set is described as follows: apoE−/− mouse atherosclerosis model, high-fat diet 10 weeks. It counts as in vivo. From the text:
Experimental method: 36 eight-week-old male apoE-/- mice were selected and randomly divided into a blank administration group, an […] administration group, an […] administration group, an […] administration group, an […] administration group, and an […] administration group, 6 mice per group. The mice in each group were fed with high-fat diet for 10 weeks. At the beginning of the high-fat feeding, the mice in each group were administrated. Each tested compound was intragastric administered at the dose of 150 mg/kg twice a day. The blank administration group was given corresponding dose of saline. […] After the blood was taken, the serum, heart, and aorta were isolated. The levels of total cholesterol (TC), high density lipoprotein cholesterol (HDL-C), and low density lipoprotein cholesterol (LDL-C) in the serum of the mice in each group were measured by automatic biochemical analyzer. The ApoA1 expression level was detected with an ApoA1 kit. The content of NO in the serum of the mice was determined with a total NO test kit (Beyotime). The NOS activities of the heart, aorta, and serum were determined with an NOS test kit (Beyotime). The content of eNOS was calculated by the difference between the measured values determined before and after adding eNOS inhibitor L-NAME (Beyotime).

For data set [3] the following is noted: 2 h.
Experimental: (§1) Experimental method: The tested compounds (2 μM) were added into mouse or human plasma, and incubated at 37° C. Samples were taken at 0, 10, 30, 60 and 120 min respectively. The reaction was stopped by adding a stop agent. The mixture was sufficient shaken, and centrifuged at 4000 rpm for 10 min at 4° C. The supernatant was taken. The concentrations of the tested compounds and their metabolite (H130) in the supernatant were measured by LC-MS/MS.
In a further data set the test system is db/db mice. The data set is described as follows: Serum NO and heart eNOS in db/db mice after oral gavage. It counts as in vivo. The settings on record: blank = 100, oral gavage 150 mg/kg (isosorbide mononitrate 5 mg/kg), 1 h after administration (H101: 2 h). The text has this: Experimental method: 25 eight-week-old db/db mice (strain: BKS.Cg−+Leprdb/+leprdb/JclSlac; grade: SPF; gender: male; source: Shanghai SLAC Laboratory Animal Co., Ltd.) were selected. 3 of them were selected as the blank administration control. 2 mice were used as the positive drug control (isosorbide mononitrate). The remaining 20 mice were randomly divided into 5 groups, 4 mice per group, which are H101 administration group, H111 administration group, H116 administration group, H119 administration group, and H130 administration group. The tested compounds of the positive drug control group and each administration group were dissolved in DMSO. Then PEG400 was added. The mixture was shaken and mixed thoroughly. At last, 10% of HP-β-CD was added. The mixture was shaken and mixed thoroughly. The ratio of each solvent was DMSO: PEG400:10% of HP-β-CD=5:67.5:27.5. The administration group was administered by oral gavage at the dose of 150 mg/kg. The positive drug control group was administered at the dose of 5 mg/kg. The mice in the H101 administration group were sacrificed at 2 h after the administration. The mice in the remaining administration groups were sacrificed at 1 h after the administration. The blood was collected respectively into 1.5 mL centrifuge tube, standing at room temperature for more than 30 min, and then centrifuged (3000 rpm, 10 min). The supernatant serum was aspirated, and stored at −80° C. for testing. After the blood was collected, the heart was cut with the thoracic aorta. Three parts of the heart were weighed and placed into cryovials, rapidly frozen in liquid nitrogen, and cryopreserved at −80° C. for testing. The aorta and aortic arch were weighed, rapidly frozen in liquid nitrogen, and cryopreserved at −80° C. for testing. The content of NO in the serum of the […] mice was determined by a total NO test kit (Beyotime). The content of NOS in the heart of the mice was determined with an NOS test kit (Beyotime). The content of eNOS was calculated by the difference between the measured values before and after adding the eNOS inhibitor L-NAME (Beyotime).

The nature of data set [4]: Release of nitric oxide in vitro (Griess reagent, nitrite). As to conditions: 10^−4 mol/L tested substance, phosphate buffer pH 7.4, cysteine 5 mmol/L, 37° C., 1 h; as nitrite. On the procedure: Experiment 1. Experimental Study on the Tested Compounds for Releasing Nitric Oxide in vitro
Experimental Procedure: • (1) Preparation of Griess Reagent: 4 g of aminobenzenesulfonamide, 0.2 g of N-naphthyl ethylene diamine hydrochloride, and 10 mL of 85% phosphoric acid solution were taken to form a solution, which is diluted to 100 mL with distilled water. • (2) Plotting of the standard curve: a serie of standard solution of 0.01, 0.03, 0.05, 0.07, 0.09, 0.2, 0.4 μg/mL of nitrite nitrogen was prepared, 10 mL of each was taken to sufficiently mix with 2.5 mL of Griess reagent, standing at room temperature for 10 min, and its absorbance value at the wavelength of 540 nm was measured. The standard curve was plotted based on the resulting data. • (3) Measuring the amount of the released NO of the tested drug: all of the tested substances were dissolved in dimethylsulfoxide (1 mL) firstly. Then phosphate buffer (pH 7.4) was slowly added dropwise, and shaken. The drug solution was diluted to 50 mL, allowing the buffer solution to contain excess cysteine (5 mmol/L), and the final concentration of the tested substances being 10^−4 mol/L; the solution was incubated at 37° C. 2 mL of the reaction solution was taken to mix with 500 μl of Griess reagent at 1 h respectively, standing at room temperature for 10 min. The absorbance value of the mixture at 540 nm was measured. Isosorbide mononitrate was used as a positive control, and H130 was used as a negative control. The amount of the released NO was represented by the amount of its oxidation product, nitrite (NO2^−).
For orientation: Griess reagent forms a coloured azo dye with nitrite.

A further data set deals with C57BL/6 mice. The data set is described as follows: Serum NO level in C57 mice after oral gavage. It counts as in vivo. The settings on record: oral gavage 150 mg/kg (positive drug 5 mg/kg), FIG. 1. From the text: Experimental method: 60 eight-week-old C57BL/6 mice (level: SPF; gender: male; source: Shanghai SLAC Laboratory Animal Co., Ltd.) were selected. […] were selected as the blank control. 12 mice were used as the positive drug control (isosorbide mononitrate). 12 mice were used as […] administration group. The other 32 mice were randomly divided into 4 groups, 8 mice per group, which are […] administration group, […] administration group, […] administration group, and […] administration group, respectively. The tested compounds of the positive drug control group and each administration group were dissolved in DMSO and then PEG400 was added thereto. The mixture was shaken and mixed thoroughly. At last, 10% of HP-β-CD was added. The mixture was shaken and mixed thoroughly. The ratio of each solvent was DMSO: PEG400:10% of HP-β-CD=5:67.5:27.5. The administration groups were administered by oral gavage at the dose of 150 mg/kg. The positive drug control group was administered at the dose of 5 mg/kg. The mice in each group were sacrificed by inhaling excess CO2 at 10 min, 30 min, 60 min, 120 min, 180 min, and 240 min after administration. The blood was collected into a 1.5 mL centrifuge tube, standing at room temperature for more than 30 min, and then centrifuged (3000 rpm, 10 min). The supernatant serum was aspirated, and stored at -80° C. for testing. After the blood was collected, the heart was cut with the thoracic aorta. Three parts of the heart were weighed and placed into cryovials, rapidly frozen in liquid nitrogen, and cryopreserved at -80° C. for testing. The aorta and aortic arch were weighed, rapidly frozen in liquid nitrogen, and cryopreserved at -80° C. for testing. The content of NO in the serum of C57BL/6 mice was determined by using the total NO test kit (Beyotime).

Data set [5] in a line: Plasma stability in vitro, human plasma. As to conditions: for Content of Tested Substance (n = 2): human plasma, 2 μM, 37° C., in % (unit assumed).
Experimental: as §1
Data set [6] can be described thus: Plasma stability in vitro, mouse plasma. As to conditions: CD-1 mice plasma, 2 μM, 37° C., in % (unit assumed).
Experimental: as §1
Setting [7] is: blank administration group = 100, 150 mg/kg twice a day, 10 weeks.
Setting [8] is: serum, high-fat diet 10 weeks, intragastric 150 mg/kg twice a day.

Turning to `COc1cc(OC)c2c(=O)[nH]c(-c3cc(C)c(OCCOC(=O)CCC(=O)ONS(=O)(=O)c4cccc(S(C)(=O)=O)c4)c(C)c3)nc2c1` [Compound H116], the “release of prototype compound H130 after administration” value in [1] is on record as “can be rapidly released”. Moreover, the “AUCRatio (Dosage Calibration)” value in data set [1] (iv, 1 mg/kg) was found to be 51.6%. Moreover, the “AUCRatio (Dosage Calibration)” value in [1] (po, 5 mg/kg) was 45.3%. Also, in [2], the “Molar Quantities of N2O/Sample” value is reported as 15.3%. Also, the “Upregulation of Apoa-I Mrna Level” value with ApoA-I mRNA is “Active”. In the data set on apoE−/− mice (setting [7]), the “Aorta eNOS” value turned out to be 136%, the ApoA1 is listed as 128%, the “Heart eNOS” value was found to be 148% and the “Serum NO” value was 138%. For the same molecule, the “Serum eNOS” value in the data set with apoE−/− mice (setting [7]) was 123%. In the data set on apoE−/− mice (setting [8]), this molecule yielded an HDL-C of 74 ± 11 mg/dL, an LDL-C of 315 ± 31 mg/dL and a TC of 1123 ± 73 mg/dL. The “stability in human plasma” value in data set [3] was “good stability”. In addition, in the data set on db/db mice, the “Heart eNOS” value stood at 159% and the “Serum NO” value was 147%.

In the case of `O=[N+]([O-])O[C@@H]1CO[C@H]2[C@@H]1OC[C@@H]2O` [Isosorbide Mononitrate, Isosorbide mononitrate, reference compound], the “Amount of Released No” value in data set [4] amounted to 3.31 µM. Besides, in the data set on C57BL/6 mice, the “time after administration at which serum NO level rose to its maximum, then decreased” value is 2 h. In the data set with db/db mice, the “Heart eNOS” value is 169% and the “Serum NO” value worked out at 136%.

As to `COc1cc(OC)c2c(=O)[nH]c(-c3cc(C)c(OCCOC(=O)ONS(=O)(=O)c4ccc(C)o4)c(C)c3)nc2c1` [Compound H104, N-((2-(4-(5,7-dimethoxy-4-oxo-3,4-dihydroquinazolin-2-yl)-2,6-dimethylphenoxy)ethoxy)carbonyloxy)-5-methylfuran-2-sulfonamide], in data set [2], the “Molar Quantities of N2O/Sample” value amounted to 23.6%. The “Upregulation of Apoa-I Mrna Level” value in the data set on ApoA-I mRNA is “Active”. The “Content of Tested Substance (n = 2)” value in [5] (0 min) was 100.0; in data set [5] (10 min) it was 99.5; in [5] (30 min), 88.7; in [5] (60 min), 81.1; in [5] (120 min), 75.8; in [6] (0 min), 100.0. The “Content of Tested Substance (n = 2)” value in [6] (10 min) was determined as 0.5; in data set [6] (30 min), 0.0; in data set [6] (60 min), 0.0; in data set [6] (120 min) it was 0.3. Besides, the “stability in human plasma” value in [5] (within 2 h) is recorded as “good stability”.
